Source: US8440652B2, “MST1 kinase inhibitors and methods of their use” (Lexicon Pharmaceuticals, Inc., priority 2011, dated 2013)
Read-outs that look alike come from different tables or passages of the source.

Molecular target: T1, MST1 (Homo sapiens, UniProt Q13043)
T1 sequence (Q13043 1-487): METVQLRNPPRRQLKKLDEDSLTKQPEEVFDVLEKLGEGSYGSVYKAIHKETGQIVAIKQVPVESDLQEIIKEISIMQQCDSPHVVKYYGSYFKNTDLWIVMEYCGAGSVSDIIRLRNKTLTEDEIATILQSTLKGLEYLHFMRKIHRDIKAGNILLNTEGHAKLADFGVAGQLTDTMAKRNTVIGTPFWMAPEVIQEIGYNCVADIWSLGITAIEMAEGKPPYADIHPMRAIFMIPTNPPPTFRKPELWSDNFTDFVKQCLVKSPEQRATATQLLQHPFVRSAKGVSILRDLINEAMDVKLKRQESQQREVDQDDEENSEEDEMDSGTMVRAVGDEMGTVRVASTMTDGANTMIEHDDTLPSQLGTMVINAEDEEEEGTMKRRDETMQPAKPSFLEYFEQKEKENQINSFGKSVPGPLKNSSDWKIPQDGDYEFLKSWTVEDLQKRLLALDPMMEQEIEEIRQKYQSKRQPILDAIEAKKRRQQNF
Test: In vitro measurement of MST1 inhibition (Z′-Lyte kinase assay)
Type: biochemical
Experimental: Assays were performed in low-volume 384-well black proxiplates (Perkin Elmer, PE-Blk-Proxi-6008269). Eight compounds were first diluted into LDV (Echo) plates using a Multiprobe, at a starting concentration of 1 mM compound in 100% DMSO. Using the ECHO, 75 nl compound was pinged into 384-well proxiplates. The starting concentration of compound in each assay plate is 7.5 uM, followed by 3-fold dilutions, to give quadruplicate ten-point concentration curves. A 3× solution of MST1 enzyme in kinase buffer (Invitrogen, PR4940C) was added to wells containing compound or DMSO controls, followed by a 10 minute preincubation step. Reactions were initiated by adding 5 μL of a mixture of ATP and Z′-Lyte S/T Pep 7 (Invitrogen, PV3180) and proceeded at RT for 1 hour. […] At the end of the kinase reaction, 10 ul of developing solution (Invitrogen, catalog #PR4876B; development buffer A diluted […] in development buffer B) was added to each well and incubated at RT for 1 hr. All wells were read on a Tecan at 400 nm excitation and 460 nm/530 nm emission. Plus and minus enzyme controls were used to calculate percent inhibition and IC50 curves were generated using Excel.

[1] = 1 μM ATP, read-out: IC50 (μM) 1 μM ATP
[2] = 50 μM ATP, read-out: IC50 (μM) 50 μM ATP

Row | SMILES | IC50 [1] [µM] | IC50 [2] [µM]
1 | Nc1ncc(-c2ccc(S(=O)(=O)NC3CC3)cc2)nc1-c1ccc2c(c1)CCNC2=O [4-(5-amino-6-(1-oxo-1,2,3,4-tetrahydroisoquinolin-6-yl)pyrazin-2-yl)-N-cyclopropylbenzenesulfonamide] | < 0.01 | < 0.01
2 | CCN(C)S(=O)(=O)c1ccc(-c2cnc(N)c(-c3ccc4c(c3)CCNC4=O)n2)cc1C [4-(5-amino-6-(1-oxo-1,2,3,4-tetrahydroisoquinolin-6-yl)pyrazin-2-yl)-N-ethyl-N,2-dimethylbenzenesulfonamide] | < 0.01 | < 0.01
3 | CCN(C)S(=O)(=O)c1ccc(-c2cnc(N)c(-c3ccc4c(c3)CCNC4=O)n2)cc1 [4-(5-amino-6-(1-oxo-1,2,3,4-tetrahydroisoquinolin-6-yl)pyrazin-2-yl)-N-ethyl-N-methylbenzenesulfonamide] | < 0.01 | < 0.01
4 | CCCN(C)S(=O)(=O)c1ccc(-c2cnc(N)c(-c3ccc4c(c3)CCNC4=O)n2)cc1 [4-(5-amino-6-(1-oxo-1,2,3,4-tetrahydroisoquinolin-6-yl)pyrazin-2-yl)-N-methyl-N-propylbenzenesulfonamide] | < 0.01 | < 0.01
5 | N#Cc1ccc(-c2cnc(N)c(-c3ccc4c(c3)CCNC4=O)n2)cc1 [4-(5-amino-6-(1-oxo-1,2,3,4-tetrahydroisoquinolin-6-yl)pyrazin-2-yl)benzonitrile] | < 0.05 | < 0.01
6 | CN(C1CC1)S(=O)(=O)c1ccc(-c2cnc(N)c(-c3ccc4c(c3)CCCNC4=O)n2)cc1 [4-(5-amino-6-(1-oxo-2,3,4,5-tetrahydro-1H-benzo[c]azepin-7-yl)pyrazin-2-yl)-N-cyclopropyl-N-methylbenzenesulfonamide] | < 0.01 | < 0.01
7 | CCN(C)S(=O)(=O)c1ccc(-c2cnc(N)c(-c3ccc4c(c3)CCCNC4=O)n2)cc1 [4-(5-amino-6-(1-oxo-2,3,4,5-tetrahydro-1H-benzo[c]azepin-7-yl)pyrazin-2-yl)-N-ethyl-N-methylbenzenesulfonamide] | < 0.05 | < 0.01
8 | Cc1cc(-c2cnc(N)c(-c3ccc4c(c3)C3(CC3)CNC4=O)n2)ccc1S(=O)(=O)NC1CC1 [4-(5-amino-6-(1′-oxo-2′,3′-dihydro-1′H-spiro[cyclopropane-1,4′-isoquinolin]-6′-yl)pyrazin-2-yl)-N-cyclopropyl-2-methylbenzenesulfonamide] | < 0.01 | < 0.01
9 | CN(C1CC1)S(=O)(=O)c1ccc(-c2cnc(N)c(-c3ccc4c(c3)C3(CC3)CNC4=O)n2)cc1 [4-(5-amino-6-(1′-oxo-2′,3′-dihydro-1′H-spiro[cyclopropane-1,4′-isoquinolin]-6′-yl)pyrazin-2-yl)-N-cyclopropyl-N-methylbenzenesulfonamide] | < 0.01 | < 0.01
10 | Nc1ncc(-c2ccc(S(=O)(=O)NC3CC3)cc2)nc1-c1ccc2c(c1)C1(CC1)CNC2=O [4-(5-amino-6-(1′-oxo-2′,3′-dihydro-1′H-spiro[cyclopropane-1,4′-isoquinolin]-6′-yl)pyrazin-2-yl)-N-cyclopropylbenzenesulfonamide] | < 0.01 | < 0.01
11 | CC1(C)NC(=O)c2ccc(-c3nc(-c4ccc(S(=O)(=O)NC5CC5)cc4)cnc3N)cc21 [4-(5-amino-6-(3,3-dimethyl-1-oxoisoindolin-5-yl)pyrazin-2-yl)-N-cyclopropylbenzenesulfonamide] | < 0.05 | < 0.01
12 | CN1Cc2cc(-c3nc(-c4ccc(S(=O)(=O)N(C)C5CC5)cc4)cnc3N)ccc2C(=O)N1 [4-(5-amino-6-(3-methyl-1-oxo-1,2,3,4-tetrahydrophthalazin-6-yl)pyrazin-2-yl)-N-cyclopropyl-N-methylbenzenesulfonamide] | < 0.05 | < 0.01
13 | CC1CNc2cc(-c3nc(-c4ccc(S(=O)(=O)N(C)C5CC5)cc4)cnc3N)ccc2C(=O)N1 (stereo not shown) [4-(5-amino-6-(3-methyl-5-oxo-2,3,4,5-tetrahydro-1H-benzo[e][1,4]diazepin-8-yl)pyrazin-2-yl)-N-cyclopropyl-N-methylbenzenesulfonamide] | < 0.01 | < 0.01
14 | [2H]C1([2H])CNC(=O)c2ccc(-c3nc(-c4ccc(S(=O)(=O)NC5CC5)cc4)cnc3N)cc21 [4-(5-amino-6-(4,4-dideutero-1-oxo-1,2,3,4-tetrahydroisoquinolin-6-yl)pyrazin-2-yl)-N-cyclopropylbenzenesulfonamide] | < 0.01 | < 0.01
15 | CC1(C)C(=O)NC(=O)c2ccc(-c3nc(-c4ccc(S(=O)(=O)NC5CC5)cc4)cnc3N)cc21 [4-(5-amino-6-(4,4-dimethyl-1,3-dioxo-1,2,3,4-tetrahydroisoquinolin-6-yl)pyrazin-2-yl)-N-cyclopropylbenzenesulfonamide] | < 0.15 | < 0.15

More lines, now with the values ahead:

Row | IC50 [1] [µM] | IC50 [2] [µM] | SMILES
16 | < 0.01 | < 0.01 | CCNS(=O)(=O)c1ccc(-c2cnc(N)c(-c3ccc4c(c3)CCNC4=O)n2)cc1 [4-(5-amino-6-(1-oxo-1,2,3,4-tetrahydroisoquinolin-6-yl)pyrazin-2-yl)-N-ethylbenzenesulfonamide]
17 | < 0.01 | < 0.01 | C[C@@H]1C[C@H]1N(C)S(=O)(=O)c1ccc(-c2cnc(N)c(-c3ccc4c(c3)CCNC4=O)n2)cc1 [4-(5-amino-6-(1-oxo-1,2,3,4-tetrahydroisoquinolin-6-yl)pyrazin-2-yl)-N-methyl-N-((1R,2R)-2-methylcyclopropyl)benzenesulfonamide]
18 | < 0.01 | < 0.01 | CN(C1CC1)S(=O)(=O)c1ccc(-c2cnc(N)c(-c3ccc4c(=O)[nH]ccc4c3)n2)cc1 [4-(5-amino-6-(1-oxo-1,2-dihydroisoquinolin-6-yl)pyrazin-2-yl)-N-cyclopropyl-N-methylbenzenesulfonamide]
19 | < 0.05 | < 0.01 | N#Cc1ccc(-c2cnc(N)c(-c3ccc4c(c3)C3(CC3)CNC4=O)n2)cc1 [4-(5-amino-6-(1′-oxo-2′,3′-dihydro-1′H-spiro[cyclopropane-1,4′-isoquinolin]-6′-yl)pyrazin-2-yl)benzonitrile]
20 | < 0.15 | < 0.05 | CN1CCc2cc(-c3nc(-c4ccc(S(=O)(=O)N(C)C5CC5)cc4)cnc3N)ccc2C1=O [4-(5-amino-6-(2-methyl-1-oxo-1,2,3,4-tetrahydroisoquinolin-6-yl)pyrazin-2-yl)-N-cyclopropyl-N-methylbenzenesulfonamide]
21 | < 0.05 | < 0.01 | Nc1ncc(-c2ccc(S(=O)(=O)NC3CC3)cc2)nc1-c1ccc2c(c1)C1(CC1)NC2=O [4-(5-amino-6-(3′-oxospiro[cyclopropane-1,1′-isoindolin]-6′-yl)pyrazin-2-yl)-N-cyclopropylbenzenesulfonamide]
22 | < 0.01 | < 0.01 | [2H]C1([2H])CNC(=O)c2ccc(-c3nc(-c4ccc(S(=O)(=O)N(C)C5CC5)cc4)cnc3N)cc21 [4-(5-amino-6-(4,4-dideutero-1-oxo-1,2,3,4-tetrahydroisoquinolin-6-yl)pyrazin-2-yl)-N-cyclopropyl-N-methylbenzenesulfonamide]
23 | < 0.01 | < 0.01 | [2H]C1([2H])CNC(=O)c2ccc(-c3nc(-c4ccc(S(=O)(=O)N(C5CC5)C([2H])([2H])[2H])cc4)cnc3N)cc21 [4-(5-amino-6-(4,4-dideutero-1-oxo-1,2,3,4-tetrahydroisoquinolin-6-yl)pyrazin-2-yl)-N-cyclopropyl-N-trideuteromethyl-benzenesulfonamide]
